Measured values taken from ChEMBL document CHEMBL4811222, “Antitumor Activity of Asperphenin B by Induction of Apoptosis and Regulation of Glyceraldehyde-3-phosphate Dehydrogenase in Human Colorectal Cancer Cells” (J Nat Prod, 2021).
Active and inactive are the calls of the source. The calls are words filed in the database; no cut-off is given here.

Experiments:
HCT-116 [1] = assay: Antimigratory activity against human HCT116 cells implanted in nude mouse assessed as inhibition of liver cells migration after 24 hrs by wound healing assay; assay type: functional, cell-based; details: dose 3-6 µM
RKO [2] = assay: Induction of cell cycle arrest in human RKO cells assessed as accumulation at S phase at 2.5 uM after 24 hrs by RNase A/propidium iodide staining based flow cytometric analysis (reference value: 24.20 %); assay type: functional
HCT-116 [3] = assay: Antiinvasive activity against human HCT116 cells implanted in nude mouse assessed as inhibition of liver cells invasion after 24 hrs by transwell assay; assay type: functional, cell-based; details: dose 3-6 µM
RKO [4] = assay: Induction of E-cadherin expression in human RKO cells after 24 hrs by Western blotting analysis; assay type: functional, cell-based
RKO [5] = assay: Induction of apoptosis in human RKO cells assessed as total apoptotic cells at 2.5 uM after 48 hrs by Annexin V/PI staining based flow cytometric analysis; assay type: functional
RKO [6] = assay: Induction of cell cycle arrest in human RKO cells assessed as accumulation at S phase at 2.5 uM after 36 hrs by RNase A/propidium iodide staining based flow cytometric analysis (reference value: 13.33 %); assay type: functional
RKO [7] = assay: Induction of cell cycle arrest in human RKO cells assessed as accumulation at G2/M phase at 2.5 uM after 36 hrs by RNase A/propidium iodide staining based flow cytometric analysis (reference value: 24.63 %); assay type: functional
RKO [8] = assay: Antitumor activity against human RKO cells implanted in BALB/c nude mouse assessed as inhibition of tumor growth at 8 mg/kg, ip administered three times per week for 21 days and measured every 3 to 4 days by electronic caliper method; assay type: functional; details: 504 h, time 21 day, read-out: TGI
HCT-116 [9] = assay: Suppression of GAPDH expression in […] at 3 to 6 uM after 24 hrs by Western blotting analysis; assay type: functional, cell-based; details: dose 3-6 µM
RKO [10] = assay: Induction of apoptosis in human RKO cells assessed as decrease in survivin expression at 2.5 uM by Western blotting analysis; assay type: functional, cell-based; details: time 12-48 hrs, TDE = time-dependent effect
HCT-116 [11] = assay: Downregulation of Snail expression in […] at 3 to 6 uM after 24 hrs by Western blotting analysis; assay type: functional, cell-based; details: dose 3-6 µM
RKO [12] = assay: Induction of apoptosis in human RKO cells assessed as modulation of cleaved PARP expression level after 48 hrs by Western blotting analysis; assay type: functional, cell-based; details: dose 2.5-10 µM
RKO [13] = assay: Induction of apoptosis in human RKO cells assessed as modulation of p53 expression level after 48 hrs by Western blotting analysis; assay type: functional, cell-based; details: dose 2.5-10 µM
CCD-841CoN = assay: Antiproliferative activity against human CCD-841CoN cells assessed as inhibition of cell growth incubated for 72 hrs by SRB assay; assay type: cell-based
RKO [14] = assay: Induction of apoptosis in human RKO cells assessed as increase in cleaved PARP expression at 2.5 uM measured upto 48 hrs by Western blotting analysis; assay type: functional, cell-based; details: time hrs <=48
RKO [15] = assay: Induction of apoptosis in human RKO cells assessed as total apoptotic cells at 1.25 uM after 48 hrs by Annexin V/PI staining based flow cytometric analysis; assay type: functional
RKO [16] = assay: Induction of cell cycle arrest in human RKO cells assessed as accumulation at sub-G1 phase at 5 uM after 24 hrs by RNase A/propidium iodide staining based flow cytometric analysis (reference value: 0.40 %); assay type: functional
RKO [17] = assay: Induction of cell cycle arrest in human RKO cells assessed as accumulation at G0/G1 phase at 2.5 uM after 24 hrs by RNase A/propidium iodide staining based flow cytometric analysis (reference value: 60.58 %); assay type: functional
HCT-116 [18] = assay: Upregulation of E-cadherin expression in […] at 3 to 6 uM after 24 hrs by Western blotting analysis; assay type: functional, cell-based; details: dose 3-6 µM
RKO [19] = assay: Induction of cell cycle arrest in human RKO cells assessed as accumulation at G0/G1 phase at 5 uM after 24 hrs by RNase A/propidium iodide staining based flow cytometric analysis (reference value: 51.49 %); assay type: functional
RKO [20] = assay: Induction of cell cycle arrest in human RKO cells assessed as accumulation at G2/M phase at 2.5 uM after 12 hrs by RNase A/propidium iodide staining based flow cytometric analysis (reference value: 24.63 %); assay type: functional
RKO [21] = assay: Induction of cell cycle arrest in human RKO cells assessed as accumulation at S phase at 1.25 uM after 24 hrs by RNase A/propidium iodide staining based flow cytometric analysis (reference value: 24.20 %); assay type: functional
[22] = Toxicity in BALB/c nude mouse implanted with human RKO cells assessed as change in body weight at 4 to 8 mg/kg, ip administered three times per week for 21 days; assay type: organism-based; details: in vivo, 504 h, dose 4-8 mg/kg, time 21 day
RKO [23] = assay: Antitumor activity against human RKO cells implanted in BALB/c nude mouse assessed as inhibition of tumor growth at 4 mg/kg, ip administered three times per week for 21 days and measured every 3 to 4 days by electronic caliper method; assay type: functional; details: 504 h, time 21 day, read-out: TGI
RKO [24] = assay: Induction of apoptosis in human RKO cells assessed as total apoptotic cells at 10 uM after 48 hrs by Annexin V/PI staining based flow cytometric analysis; assay type: functional
RKO [25] = assay: Induction of apoptosis in human RKO cells assessed as increase in p53 level at 2.5 uM measured upto 48 hrs by Western blotting analysis; assay type: functional, cell-based; details: time hrs <=48
RKO [26] = assay: Induction of cell cycle arrest in human RKO cells assessed as accumulation at S phase at 2.5 uM after 24 hrs by RNase A/propidium iodide staining based flow cytometric analysis (reference value: 13.33 %); assay type: functional
RKO [27] = assay: Suppression of GAPDH protein expression in human RKO cells after 24 hrs by Western blotting analysis; assay type: functional, cell-based; details: dose 2.5-10 µM
RKO [28] = assay: Induction of cell cycle arrest in human RKO cells assessed as accumulation at sub-G1 phase at 2.5 uM after 24 hrs by RNase A/propidium iodide staining based flow cytometric analysis (reference value: 0.89 %); assay type: functional
RKO [29] = assay: Antitumor activity against human RKO cells implanted in ip dosed BALB/c nude mouse assessed as suppression of GAPDH expression in tumor lysates administered three times per week for 21 days by Western blotting analysis; assay type: functional, organism-based; details: Neoplasm, time 21.0 day
RKO [30] = assay: Induction of cell cycle arrest in human RKO cells assessed as accumulation at G0/G1 phase at 1.25 uM after 24 hrs by RNase A/propidium iodide staining based flow cytometric analysis (reference value: 51.49 %); assay type: functional
RKO [31] = assay: Induction of apoptosis in human RKO cells assessed as modulation of cleaved caspase 3 expression level after 48 hrs by Western blotting analysis; assay type: functional, cell-based; details: dose 2.5-10 µM
RKO [32] = assay: Induction of cell cycle arrest in human RKO cells assessed as accumulation at sub-G1 phase at 2.5 uM after 36 hrs by RNase A/propidium iodide staining based flow cytometric analysis (reference value: 0.89 %); assay type: functional
HCT-116 [33] = assay: Downregulation of N-Cadherin expression in […] at 3 to 6 uM after 24 hrs by Western blotting analysis; assay type: functional, cell-based; details: dose 3-6 µM
RKO [34] = assay: Induction of apoptosis in human RKO cells assessed as modulation of cleaved caspase 9 expression level after 48 hrs by Western blotting analysis; assay type: functional, cell-based; details: dose 2.5-10 µM
RKO [35] = assay: Induction of cell cycle arrest in human RKO cells assessed as accumulation at G0/G1 phase at 2.5 uM after 24 hrs by RNase A/propidium iodide staining based flow cytometric analysis (reference value: 51.49 %); assay type: functional

**Q.** Which inhibition (HCT-116 [1]) does the source give for `CCCCCCCCC[C@@H](O)CC(=O)N[C@@H](CC(N)=O)C(=O)N[C@@H](CCC(N)=O)C(=O)N[C@H](CC(=O)c1cc(C)cc(O)c1C(=O)c1c(O)cccc1O)CC(C)C` here?
**A.** Its inhibition is “Dose-Dependent Effect”.

**Q.** What about the Activity (RKO [2]) of the same molecule?
**A.** The Activity was 23.35%.

**Q.** And the inhibition (HCT-116 [3])?
**A.** The inhibition was “Dose-Dependent Effect”.

**Q.** And the Activity (RKO [4])?
**A.** Its Activity is “Active”.

**Q.** What about the Activity (RKO [5]) of the same molecule?
**A.** The Activity was 15.14%.

**Q.** What about the Activity (RKO [6]) of the same molecule?
**A.** Its Activity is 10.45%.

**Q.** What about the Activity (RKO [7]) of the same molecule?
**A.** Its Activity is 63.62%.

**Q.** What about the inhibition in vivo at 8 mg/kg (RKO [8]) of the same molecule?
**A.** Its inhibition in vivo at 8 mg/kg is 57.1%.

**Q.** What about the Activity (HCT-116 [9]) of the same molecule?
**A.** Its Activity is “Active”.

**Q.** And the Activity (RKO [10])?
**A.** Its Activity is “Tde”.

**Q.** What about the Activity (HCT-116 [11]) of the same molecule?
**A.** The Activity was “Active”.

**Q.** And the Activity (RKO [12])?
**A.** Its Activity is “Dose-Dependent Effect”.

**Q.** And the Activity (RKO [13])?
**A.** Its Activity is “Dose-Dependent Effect”.

**Q.** And the IC50 (CCD-841CoN)?
**A.** The IC50 was 47.2 µM.

**Q.** And the Activity (RKO [14])?
**A.** Its Activity is “Active”.

**Q.** And the Activity (RKO [15])?
**A.** Its Activity is 7.85%.

**Q.** What about the Activity (RKO [16]) of the same molecule?
**A.** The Activity was 1.1%.

**Q.** And the Activity (RKO [17])?
**A.** The Activity was 33.93%.

**Q.** What about the Activity (HCT-116 [18]) of the same molecule?
**A.** Its Activity is “Active”.

**Q.** And the Activity (RKO [19])?
**A.** Its Activity is 25.55%.

**Q.** What about the Activity (RKO [20]) of the same molecule?
**A.** Its Activity is 27.91%.

**Q.** And the Activity (RKO [21])?
**A.** The Activity was 23.61%.

**Q.** And the Activity [22]?
**A.** The Activity was “Non-Toxic”.

**Q.** What about the inhibition in vivo at 4 mg/kg (RKO [23]) of the same molecule?
**A.** Its inhibition in vivo at 4 mg/kg is 32.8%.

**Q.** And the Activity (RKO [24])?
**A.** The Activity was 51.04%.

**Q.** What about the Activity (RKO [25]) of the same molecule?
**A.** The Activity was “Active”.

**Q.** What about the Activity (RKO [26]) of the same molecule?
**A.** Its Activity is 16.64%.

**Q.** What about the Activity (RKO [27]) of the same molecule?
**A.** The Activity was “Dose-Dependent Effect”.

**Q.** What about the Activity (RKO [28]) of the same molecule?
**A.** Its Activity is 1.22%.

**Q.** And the Activity (RKO [29])?
**A.** The Activity was “Dose-Dependent Effect”.

**Q.** And the Activity (RKO [30])?
**A.** The Activity was 46.96%.

**Q.** What about the Activity (RKO [31]) of the same molecule?
**A.** The Activity was “Dose-Dependent Effect”.

**Q.** And the Activity (RKO [32])?
**A.** The Activity was 3.74%.

**Q.** What about the Activity (HCT-116 [33]) of the same molecule?
**A.** The Activity was “Active”.

**Q.** What about the Activity (RKO [34]) of the same molecule?
**A.** Its Activity is “Dose-Dependent Effect”.

**Q.** And the Activity (RKO [35])?
**A.** Its Activity is 32.4%.
